Assay results taken from patent US20230085307A1, “PYRIDAZINONE COMPOUND AND HERBICIDE” (NISSAN CHEMICAL CORPORATION, priority 2019, published 2023).

Test system: oval-leafed pondweed
Test: Test Example 1: herbicidal activity, application before weed generation under submerged conditions (Table 16, symbol C)
Assay type: in vivo, oval-leafed pondweed (Monochoria vaginalis)
Conditions: amount of applied herbicide 320 g/ha
How it was run: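 Submerged Wagner pots (alluvial soil, 4 cm water) sown with weed seeds and planted with 2.5-leaf rice seedlings; emulsifiable concentrate diluted in water applied to water surface on sowing day. Held in greenhouse at 25-30 °C; injury scored 0-5 by herbicidal rate after three weeks.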

SMILES | Herbicidal effect, C: oval-leafed pondweed
CCOc1ccc(-c2oc3ccc(F)cc3c2-c2c(O)c(C)nn(C)c2=O)cc1 [9-021] | 5 (Herbicidal rate of 90% or more (almost completely withered))
CCCOc1ccc(-c2oc3ccc(F)cc3c2-c2c(O)c(C)nn(C)c2=O)cc1 [9-023] | 5 (Herbicidal rate of 90% or more (almost completely withered))
CSc1ccc(-c2oc3ccc(F)cc3c2-c2c(O)c(C)nn(C)c2=O)cc1 [9-037] | 0 (Herbicidal rate of 5% or less (almost no effect))

Test system: Japanese bulrush
Test: Test Example 2: herbicidal activity, application during weed generation under submerged conditions (Table 17, symbol B)
Assay type: in vivo, Japanese bulrush (Schoenoplectus juncoides)
Conditions: AAH 320 g/ha; application during weed generation, submerged conditions
How it was run: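 Herbicide emulsion, diluted with water to the chosen amount, is applied onto 4 cm floodwater over alluvial soil where the weeds were co-sown and raised at 25–30° C. Application timing: 1–2 leaves. Assessment: three weeks afterwards.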

SMILES | herbicidal effect rating, B: Japanese bulrush
CCOc1ccc(-c2oc3ccc(F)cc3c2-c2c(O)c(C)nn(C)c2=O)cc1 [9-021] | 3 (Herbicidal rate of 40% or more and less than 70%)
CCCOc1ccc(-c2oc3ccc(F)cc3c2-c2c(O)c(C)nn(C)c2=O)cc1 [9-023] | 3 (Herbicidal rate of 40% or more and less than 70%)
CSc1ccc(-c2oc3ccc(F)cc3c2-c2c(O)c(C)nn(C)c2=O)cc1 [9-037] | 2 (Herbicidal rate of 20% or more and less than 40%)

Test system: Chinese sprangletop
Test: Test Example 3: herbicidal effect by foliage application, Wagner pot (Table 18, symbol D)
Assay type: in vivo, chinese sprangletop (Leptochloa chinensis)
Conditions: amount of applied herbicide 320 g/ha
How it was run: (§1)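 Plants were sown in alluvial soil held under 0.1–0.5 cm standing water and grown 14 days in a greenhouse at 25–30 °C. An emulsifiable formulation, water-diluted to the set dose, was then sprayed onto the foliage, and effects were scored three weeks later using previously defined criteria.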

SMILES | Herbicidal effect on D (Chinese sprangletop), foliage application
CCOc1ccc(-c2oc3ccc(F)cc3c2-c2c(O)c(C)nn(C)c2=O)cc1 [9-021] | 3 (Herbicidal rate of 40% or more and less than 70%)
CCCOc1ccc(-c2oc3ccc(F)cc3c2-c2c(O)c(C)nn(C)c2=O)cc1 [9-023] | 3 (Herbicidal rate of 40% or more and less than 70%)
CSc1ccc(-c2oc3ccc(F)cc3c2-c2c(O)c(C)nn(C)c2=O)cc1 [9-037] | 2 (Herbicidal rate of 20% or more and less than 40%)

Test system: rice flat sedge
Test: Test Example 3: herbicidal effect by foliage application, Wagner pot (Table 18, symbol E)
Assay type: in vivo, rice flat sedge (Cyperus iria)
Conditions: amount of applied herbicide 320 g/ha
How it was run: as §1

SMILES | Herbicidal effect on E (rice flat sedge), foliage application
CCOc1ccc(-c2oc3ccc(F)cc3c2-c2c(O)c(C)nn(C)c2=O)cc1 [9-021] | 5 (Herbicidal rate of 90% or more (almost completely withered))
CCCOc1ccc(-c2oc3ccc(F)cc3c2-c2c(O)c(C)nn(C)c2=O)cc1 [9-023] | 5 (Herbicidal rate of 90% or more (almost completely withered))
CSc1ccc(-c2oc3ccc(F)cc3c2-c2c(O)c(C)nn(C)c2=O)cc1 [9-037] | 5 (Herbicidal rate of 90% or more (almost completely withered))

Test system: green foxtail
Test: Test Example 4: herbicidal effect by soil treatment (Table 19, symbol G)
Assay type: in vivo, green foxtail (Setaria viridis)
Conditions: amount of applied herbicide 320 g/ha
How it was run: (§2)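 Pre-emergence style soil spray: seeds under ~1.5 cm sterilized diluvial soil received a uniform coat of emulsion diluted to the predetermined herbicide amount. Greenhouse 25–30° C; readout at week three on previously defined criteria.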

SMILES | G: green foxtail, herbicidal effect grade
CCOc1ccc(-c2oc3ccc(F)cc3c2-c2c(O)c(C)nn(C)c2=O)cc1 [9-021] | 4 (Herbicidal rate of 70% or more and less than 90%)
CCCOc1ccc(-c2oc3ccc(F)cc3c2-c2c(O)c(C)nn(C)c2=O)cc1 [9-023] | 5 (Herbicidal rate of 90% or more (almost completely withered))
CSc1ccc(-c2oc3ccc(F)cc3c2-c2c(O)c(C)nn(C)c2=O)cc1 [9-037] | 1 (Herbicidal rate of 5% or more and less than 20%)

Test system: wild oat
Test: Test Example 4: herbicidal effect by soil treatment (Table 19, symbol I)
Assay type: in vivo, wild oat (Avena fatua)
Conditions: amount of applied herbicide 320 g/ha
How it was run: as §2

SMILES | I: wild oat, herbicidal effect grade
CCOc1ccc(-c2oc3ccc(F)cc3c2-c2c(O)c(C)nn(C)c2=O)cc1 [9-021] | 0 (Herbicidal rate of 5% or less (almost no effect))
CCCOc1ccc(-c2oc3ccc(F)cc3c2-c2c(O)c(C)nn(C)c2=O)cc1 [9-023] | 0 (Herbicidal rate of 5% or less (almost no effect))
CSc1ccc(-c2oc3ccc(F)cc3c2-c2c(O)c(C)nn(C)c2=O)cc1 [9-037] | 0 (Herbicidal rate of 5% or less (almost no effect))

Test system: Italian ryegrass
Test: Test Example 4: herbicidal effect by soil treatment (Table 19, symbol K)
Assay type: in vivo, Italian ryegrass (Lolium multiflorum)
Conditions: amount of applied herbicide 320 g/ha
How it was run: as §2

SMILES | K: Italian ryegrass, herbicidal effect grade
CCOc1ccc(-c2oc3ccc(F)cc3c2-c2c(O)c(C)nn(C)c2=O)cc1 [9-021] | 5 (Herbicidal rate of 90% or more (almost completely withered))
CCCOc1ccc(-c2oc3ccc(F)cc3c2-c2c(O)c(C)nn(C)c2=O)cc1 [9-023] | 5 (Herbicidal rate of 90% or more (almost completely withered))
CSc1ccc(-c2oc3ccc(F)cc3c2-c2c(O)c(C)nn(C)c2=O)cc1 [9-037] | 5 (Herbicidal rate of 90% or more (almost completely withered))

Test system: windgrass
Test: Test Example 4: herbicidal effect by soil treatment (Table 19, symbol L)
Assay type: in vivo, windgrass (Apera spica-venti)
Conditions: amount of applied herbicide 320 g/ha
How it was run: as §2

SMILES | L: windgrass, herbicidal effect grade
CCOc1ccc(-c2oc3ccc(F)cc3c2-c2c(O)c(C)nn(C)c2=O)cc1 [9-021] | 3 (Herbicidal rate of 40% or more and less than 70%)
CCCOc1ccc(-c2oc3ccc(F)cc3c2-c2c(O)c(C)nn(C)c2=O)cc1 [9-023] | 3 (Herbicidal rate of 40% or more and less than 70%)
CSc1ccc(-c2oc3ccc(F)cc3c2-c2c(O)c(C)nn(C)c2=O)cc1 [9-037] | 0 (Herbicidal rate of 5% or less (almost no effect))

Test system: velvetleaf
Test: Test Example 4: herbicidal effect by soil treatment (Table 19, symbol M)
Assay type: in vivo, velvetleaf (Abutilon theophrasti)
Conditions: amount of applied herbicide 320 g/ha
How it was run: as §2

SMILES | M: velvetleaf, herbicidal effect grade
CCOc1ccc(-c2oc3ccc(F)cc3c2-c2c(O)c(C)nn(C)c2=O)cc1 [9-021] | 3 (Herbicidal rate of 40% or more and less than 70%)
CCCOc1ccc(-c2oc3ccc(F)cc3c2-c2c(O)c(C)nn(C)c2=O)cc1 [9-023] | 3 (Herbicidal rate of 40% or more and less than 70%)
CSc1ccc(-c2oc3ccc(F)cc3c2-c2c(O)c(C)nn(C)c2=O)cc1 [9-037] | 3 (Herbicidal rate of 40% or more and less than 70%)

Test system: redroot pigweed
Test: Test Example 4: herbicidal effect by soil treatment (Table 19, symbol N)
Assay type: in vivo, redroot pigweed (Amaranthus retroflexus)
Conditions: amount of applied herbicide 320 g/ha
How it was run: as §2

SMILES | N: redroot pigweed, herbicidal effect grade
CCOc1ccc(-c2oc3ccc(F)cc3c2-c2c(O)c(C)nn(C)c2=O)cc1 [9-021] | 5 (Herbicidal rate of 90% or more (almost completely withered))
CCCOc1ccc(-c2oc3ccc(F)cc3c2-c2c(O)c(C)nn(C)c2=O)cc1 [9-023] | 5 (Herbicidal rate of 90% or more (almost completely withered))
CSc1ccc(-c2oc3ccc(F)cc3c2-c2c(O)c(C)nn(C)c2=O)cc1 [9-037] | 5 (Herbicidal rate of 90% or more (almost completely withered))

Test system: lambsquarters
Test: Test Example 4: herbicidal effect by soil treatment (Table 19, symbol O)
Assay type: in vivo, lambsquarters (Chenopodium album)
Conditions: amount of applied herbicide 320 g/ha
How it was run: as §2

SMILES | O: lambsquarters, herbicidal effect grade
CCOc1ccc(-c2oc3ccc(F)cc3c2-c2c(O)c(C)nn(C)c2=O)cc1 [9-021] | 4 (Herbicidal rate of 70% or more and less than 90%)
CCCOc1ccc(-c2oc3ccc(F)cc3c2-c2c(O)c(C)nn(C)c2=O)cc1 [9-023] | 5 (Herbicidal rate of 90% or more (almost completely withered))
CSc1ccc(-c2oc3ccc(F)cc3c2-c2c(O)c(C)nn(C)c2=O)cc1 [9-037] | 2 (Herbicidal rate of 20% or more and less than 40%)

Test system: persian speedwell
Test: Test Example 4: herbicidal effect by soil treatment (Table 19, symbol R)
Assay type: in vivo, Persian speedwell (Veronica persica)
Conditions: amount of applied herbicide 320 g/ha
How it was run: as §2

SMILES | R: persian speedwell, herbicidal effect grade
CCOc1ccc(-c2oc3ccc(F)cc3c2-c2c(O)c(C)nn(C)c2=O)cc1 [9-021] | 5 (Herbicidal rate of 90% or more (almost completely withered))
CCCOc1ccc(-c2oc3ccc(F)cc3c2-c2c(O)c(C)nn(C)c2=O)cc1 [9-023] | 4 (Herbicidal rate of 70% or more and less than 90%)
CSc1ccc(-c2oc3ccc(F)cc3c2-c2c(O)c(C)nn(C)c2=O)cc1 [9-037] | 4 (Herbicidal rate of 70% or more and less than 90%)

Test system: barnyard grass
Test: Test Example 5: herbicidal effect by foliage application, plastic box (Table 20, symbol H)
Assay type: in vivo, barnyard grass (Echinochloa crus-galli)
Conditions: foliage application, 320 g/ha, three weeks after application
How it was run: (§3)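 Plants were sown into sterilized diluvial soil under about 1.5 cm cover and kept in a greenhouse at 25° C. to 30° C. Fourteen days on, foliage received an even spray of the diluted emulsion. Herbicidal or crop effect was judged three weeks afterwards.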

SMILES | herbicidal effect on barnyard grass (H)
CCOc1ccc(-c2oc3ccc(F)cc3c2-c2c(O)c(C)nn(C)c2=O)cc1 [9-021] | 3 (Herbicidal rate of 40% or more and less than 70%)
CCCOc1ccc(-c2oc3ccc(F)cc3c2-c2c(O)c(C)nn(C)c2=O)cc1 [9-023] | 5 (Herbicidal rate of 90% or more (almost completely withered))
CSc1ccc(-c2oc3ccc(F)cc3c2-c2c(O)c(C)nn(C)c2=O)cc1 [9-037] | 4 (Herbicidal rate of 70% or more and less than 90%)

Test system: blackgrass
Test: Test Example 5: herbicidal effect by foliage application, plastic box (Table 20, symbol J)
Assay type: in vivo, blackgrass (Alopecurus myosuroides)
Conditions: foliage application, 320 g/ha, three weeks after application
How it was run: as §3

SMILES | herbicidal effect on blackgrass (J)
CCOc1ccc(-c2oc3ccc(F)cc3c2-c2c(O)c(C)nn(C)c2=O)cc1 [9-021] | 1 (Herbicidal rate of 5% or more and less than 20%)
CCCOc1ccc(-c2oc3ccc(F)cc3c2-c2c(O)c(C)nn(C)c2=O)cc1 [9-023] | 4 (Herbicidal rate of 70% or more and less than 90%)
CSc1ccc(-c2oc3ccc(F)cc3c2-c2c(O)c(C)nn(C)c2=O)cc1 [9-037] | 2 (Herbicidal rate of 20% or more and less than 40%)

Test system: Italian ryegrass
Test: Test Example 5: herbicidal effect by foliage application, plastic box (Table 20, symbol K)
Assay type: in vivo, Italian ryegrass (Lolium multiflorum)
Conditions: foliage application, 320 g/ha, three weeks after application
How it was run: as §3

SMILES | herbicidal effect on Italian ryegrass (K)
CCOc1ccc(-c2oc3ccc(F)cc3c2-c2c(O)c(C)nn(C)c2=O)cc1 [9-021] | 5 (Herbicidal rate of 90% or more (almost completely withered))
CCCOc1ccc(-c2oc3ccc(F)cc3c2-c2c(O)c(C)nn(C)c2=O)cc1 [9-023] | 5 (Herbicidal rate of 90% or more (almost completely withered))
CSc1ccc(-c2oc3ccc(F)cc3c2-c2c(O)c(C)nn(C)c2=O)cc1 [9-037] | 5 (Herbicidal rate of 90% or more (almost completely withered))

Test system: velvetleaf
Test: Test Example 5: herbicidal effect by foliage application, plastic box (Table 20, symbol M)
Assay type: in vivo, velvetleaf (Abutilon theophrasti)
Conditions: foliage application, 320 g/ha, three weeks after application
How it was run: as §3

SMILES | herbicidal effect on velvetleaf (M)
CCOc1ccc(-c2oc3ccc(F)cc3c2-c2c(O)c(C)nn(C)c2=O)cc1 [9-021] | 5 (Herbicidal rate of 90% or more (almost completely withered))
CCCOc1ccc(-c2oc3ccc(F)cc3c2-c2c(O)c(C)nn(C)c2=O)cc1 [9-023] | 5 (Herbicidal rate of 90% or more (almost completely withered))
CSc1ccc(-c2oc3ccc(F)cc3c2-c2c(O)c(C)nn(C)c2=O)cc1 [9-037] | 5 (Herbicidal rate of 90% or more (almost completely withered))
